IC50 data for 15 molecules are collected here from US20260015358A1, “BICYCLIC DERIVATIVES, COMPOSITIONS AND USES THEREOF” (Danatlas Pharmaceuticals Co., Ltd., priority 2023, published 2026).

A word on the IC50: it is the concentration needed to halve the response being measured.

Assay [1] addresses T1, WRN [UniPro: Q14191 (WRN_HUMAN), N500-C946] (Homo sapiens (Human), UniProt Q14191). Briefly: WRN unwinding assay (FORKF DNA, fluorescence). The assay is classed as biochemical. Conditions: Table 14.
In assay [2] the target is T1, WRN [UniPro: Q14191 (WRN_HUMAN), N500-C946]. The assay can be described thus: WRN ATPase assay (ADP-Glo). Conditions: WRN enzymatic activity assay. The assay is classed as biochemical. For orientation: ADP-Glo first removes unused ATP, then detects ADP through luciferase.

T1 sequence (Q14191 500-946): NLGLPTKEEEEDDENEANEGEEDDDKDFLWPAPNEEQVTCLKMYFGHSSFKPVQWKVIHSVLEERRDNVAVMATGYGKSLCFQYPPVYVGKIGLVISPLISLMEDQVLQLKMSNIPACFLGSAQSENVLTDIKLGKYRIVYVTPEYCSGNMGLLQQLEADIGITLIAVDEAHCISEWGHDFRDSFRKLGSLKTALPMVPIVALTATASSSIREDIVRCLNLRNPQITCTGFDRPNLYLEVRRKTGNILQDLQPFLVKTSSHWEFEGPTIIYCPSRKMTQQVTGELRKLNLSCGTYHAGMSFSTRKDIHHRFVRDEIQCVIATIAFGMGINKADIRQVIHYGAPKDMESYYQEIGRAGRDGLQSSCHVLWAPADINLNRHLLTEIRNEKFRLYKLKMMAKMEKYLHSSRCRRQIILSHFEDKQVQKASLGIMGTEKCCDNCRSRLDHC

For `CCc1c(N2CCN(C(=O)CNC(=O)c3cc(N)ccc3F)CC2)c(=O)n2nc(C3=CCOCC3)nc2n1CC(=O)Nc1ccc(C(F)(F)F)cc1Cl` [Example 372, 5-Amino-N-(2-(4-(4-(2-((2-chloro-4-(trifluoromethyl)phenyl)amino)-2-oxoethyl)-2-(3,6-dihydro-2H-pyran-4-yl)-5-ethyl-7-oxo-4,7-dihydro-[1,2,4]triazolo[1,5-a]pyrimidin-6-yl)piperazin-1-yl)-2-oxoethyl)-2-fluorobenzamide], the IC50 in assay [1] and in assay [2] was less than 100 nM each time.
With `CCc1c(N2CCN(C(=O)CNC(=O)c3cc(N)c(F)cc3F)CC2)c(=O)n2nc(C3=CCOCC3)nc2n1CC(=O)Nc1ccc(C(F)(F)F)cc1Cl` [Example 373, 5-Amino-N-(2-(4-(4-(2-((2-chloro-4-(trifluoromethyl)phenyl)amino)-2-oxoethyl)-2-(3,6-dihydro-2H-pyran-4-yl)-5-ethyl-7-oxo-4,7-dihydro-[1,2,4]triazolo[1,5-a]pyrimidin-6-yl)piperazin-1-yl)-2-oxoethyl)-2,4-difluorobenzamide], the IC50 in assay [1] was 100 to 1000 nM; in assay [2] it was less than 100 nM.
For the molecule `CCNc1ccc(F)c(C(=O)NCC(=O)N2CCN(c3c(CC)n(CC(=O)Nc4ccc(C(F)(F)F)cc4Cl)c4nc(C5=CCOCC5)nn4c3=O)CC2)c1` [Example 374, N-(2-(4-(4-(2-((2-Chloro-4-(trifluoromethyl)phenyl)amino)-2-oxoethyl)-2-(3,6-dihydro-2H-pyran-4-yl)-5-ethyl-7-oxo-4,7-dihydro-[1,2,4]triazolo[1,5-a]pyrimidin-6-yl)piperazin-1-yl)-2-oxoethyl)-5-(ethylamino)-2-fluorobenzamide], the IC50 in assay [1] and in assay [2] was less than 100 nM in each case.
Turning to `CCc1c(N2CCN(C(=O)CNC(=O)c3ccc(F)s3)CC2)c(=O)n2nc(C3=CCOCC3)nc2n1CC(=O)Nc1ccc(C(F)(F)F)cc1Cl` [Example 375, N-(2-(4-(4-(2-((2-Chloro-4-(trifluoromethyl)phenyl)amino)-2-oxoethyl)-2-(3,6-dihydro-2H-pyran-4-yl)-5-ethyl-7-oxo-4,7-dihydro-[1,2,4]triazolo[1,5-a]pyrimidin-6-yl)piperazin-1-yl)-2-oxoethyl)-5-fluorothiophene-2-carboxamide], the IC50 in assay [1] and in assay [2] was less than 100 nM each time.
As for `CCc1c(N2CCN(C(=O)CNC(=O)c3ccno3)CC2)c(=O)n2nc(N3CCOCC3)nc2n1CC(=O)Nc1ccc(C(F)(F)F)cc1Cl` [Example 376, N-(2-(4-(4-(2-((2-Chloro-4-(trifluoromethyl)phenyl)amino)-2-oxoethyl)-5-ethyl-2-morpholino-7-oxo-4,7-dihydro-[1,2,4]triazolo[1,5-a]pyrimidin-6-yl)piperazin-1-yl)-2-oxoethyl) isoxazole-5-carboxamide], the IC50 in assay [1] and in assay [2] was less than 100 nM throughout.
Regarding `CCc1c(N2CCN(C(=O)CNC(=O)c3ncnc(C)c3O)CC2)c(=O)n2nc(N3CCOCC3)nc2n1CC(=O)Nc1ccc(C(F)(F)F)cc1Cl` [Example 377, N-(2-(4-(4-(2-((2-Chloro-4-(trifluoromethyl)phenyl)amino)-2-oxoethyl)-5-ethyl-2-morpholino-7-oxo-4,7-dihydro-[1,2,4]triazolo[1,5-a]pyrimidin-6-yl)piperazin-1-yl)-2-oxoethyl)-5-hydroxy-6-methylpyrimidine-4-carboxamide], the IC50 in assay [1] and in assay [2] was less than 100 nM throughout.
`CCc1c(N2CCN(C(=O)CNC(=O)c3cc(OC)ccc3F)CC2)c(=O)n2nc(C3=CCOCC3)nc2n1CC(=O)Nc1ccc(C(F)(F)F)cc1Cl` [Example 378, N-(2-(4-(4-(2-((2-Chloro-4-(trifluoromethyl)phenyl)amino)-2-oxoethyl)-2-(3,6-dihydro-2H-pyran-4-yl)-5-ethyl-7-oxo-4,7-dihydro-[1,2,4]triazolo[1,5-a]pyrimidin-6-yl)piperazin-1-yl)-2-oxoethyl)-2-fluoro-5-methoxybenzamide]: the IC50 in assay [1] and in assay [2] was less than 100 nM in each case.
As to `CCc1c(N2CCN(C(=O)CNC(=O)c3ccc(OC)cc3F)CC2)c(=O)n2nc(C3=CCOCC3)nc2n1CC(=O)Nc1ccc(C(F)(F)F)cc1Cl` [Example 379, N-(2-(4-(4-(2-((2-Chloro-4-(trifluoromethyl)phenyl)amino)-2-oxoethyl)-2-(3,6-dihydro-2H-pyran-4-yl)-5-ethyl-7-oxo-4,7-dihydro-[1,2,4]triazolo[1,5-a]pyrimidin-6-yl)piperazin-1-yl)-2-oxoethyl)-2-fluoro-4-methoxybenzamide], the IC50 in assay [1] and in assay [2] was less than 100 nM throughout.
Regarding `CCc1c(N2CCN(C(=O)CNC(=O)c3ccc(NC)cc3F)CC2)c(=O)n2nc(C3=CCOCC3)nc2n1CC(=O)Nc1ccc(C(F)(F)F)cc1Cl` [Example 380, N-(2-(4-(4-(2-((2-Chloro-4-(trifluoromethyl)phenyl)amino)-2-oxoethyl)-2-(3,6-dihydro-2H-pyran-4-yl)-5-ethyl-7-oxo-4,7-dihydro-[1,2,4]triazolo[1,5-a]pyrimidin-6-yl)piperazin-1-yl)-2-oxoethyl)-2-fluoro-4-(methylamino)benzamide], the IC50 in assay [1] and in assay [2] was 100 to 1000 nM throughout.
Regarding `CCc1c(N2CCN(C(=O)CNC(=O)c3ccncc3O)CC2)c(=O)n2nc(C3=CCOCC3)nc2n1CC(=O)Nc1ccc(C(F)(F)F)cc1Cl` [Example 381, N-(2-(4-(4-(2-((2-Chloro-4-(trifluoromethyl)phenyl)amino)-2-oxoethyl)-2-(3,6-dihydro-2H-pyran-4-yl)-5-ethyl-7-oxo-4,7-dihydro-[1,2,4]triazolo[1,5-a]pyrimidin-6-yl)piperazin-1-yl)-2-oxoethyl)-3-hydroxyisonicotinamide], the IC50 in assay [1] and in assay [2] was less than 100 nM throughout.
For the molecule `CCc1c(N2CCN(C(=O)CNC(=O)c3cc(C#N)ccc3F)CC2)c(=O)n2nc(C3=CCOCC3)nc2n1CC(=O)Nc1ccc(C(F)(F)F)cc1Cl` [Example 382, N-(2-(4-(4-(2-((2-Chloro-4-(trifluoromethyl)phenyl)amino)-2-oxoethyl)-2-(3,6-dihydro-2H-pyran-4-yl)-5-ethyl-7-oxo-4,7-dihydro-[1,2,4]triazolo[1,5-a]pyrimidin-6-yl)piperazin-1-yl)-2-oxoethyl)-5-cyano-2-fluorobenzamide], the IC50 in assay [1] and in assay [2] was less than 100 nM throughout.
As for `CCc1c(N2CCN(C(=O)CNC(=O)c3cccc4nonc34)CC2)c(=O)n2nc(C3=CCOCC3)nc2n1CC(=O)Nc1ccc(C(F)(F)F)cc1Cl` [Example 383, N-(2-(4-(4-(2-((2-Chloro-4-(trifluoromethyl)phenyl)amino)-2-oxoethyl)-2-(3,6-dihydro-2H-pyran-4-yl)-5-ethyl-7-oxo-4,7-dihydro-[1,2,4]triazolo[1,5-a]pyrimidin-6-yl)piperazin-1-yl)-2-oxoethyl)benzo[c][1,2,5]oxadiazole-4-carboxamide], the IC50 in assay [1] and in assay [2] was less than 100 nM throughout.
On to `CCc1c(N2CCN(C(=O)CNC(=O)c3cnon3)CC2)c(=O)n2nc(C3=CCOCC3)nc2n1CC(=O)Nc1ccc(C(F)(F)F)cc1Cl` [Example 384, N-(2-(4-(4-(2-((2-Chloro-4-(trifluoromethyl)phenyl)amino)-2-oxoethyl)-2-(3,6-dihydro-2H-pyran-4-yl)-5-ethyl-7-oxo-4,7-dihydro-[1,2,4]triazolo[1,5-a]pyrimidin-6-yl)piperazin-1-yl)-2-oxoethyl)-1,2,5-oxadiazole-3-carboxamide], for which the IC50 in assay [1] and in assay [2] was less than 100 nM throughout.
As to `CCc1c(N2CCN(C(=O)CNC(=O)c3ccco3)CC2)c(=O)n2nc(C3=CCOCC3)nc2n1CC(=O)Nc1ccc(C(F)(F)F)cc1Cl` [Example 385, N-(2-(4-(4-(2-((2-Chloro-4-(trifluoromethyl)phenyl)amino)-2-oxoethyl)-2-(3,6-dihydro-2H-pyran-4-yl)-5-ethyl-7-oxo-4,7-dihydro-[1,2,4]triazolo[1,5-a]pyrimidin-6-yl)piperazin-1-yl)-2-oxoethyl)furan-2-carboxamide], the IC50 in assay [1] and in assay [2] was less than 100 nM throughout.
Take `CCc1c(N2CCN(C(=O)CNC(=O)c3cccs3)CC2)c(=O)n2nc(C3=CCOCC3)nc2n1CC(=O)Nc1ccc(C(F)(F)F)cc1Cl` [Example 386, N-(2-(4-(4-(2-((2-Chloro-4-(trifluoromethyl)phenyl)amino)-2-oxoethyl)-2-(3,6-dihydro-2H-pyran-4-yl)-5-ethyl-7-oxo-4,7-dihydro-[1,2,4]triazolo[1,5-a]pyrimidin-6-yl)piperazin-1-yl)-2-oxoethyl)thiophene-2-carboxamide]: the IC50 in assay [1] and in assay [2] was less than 100 nM in each case.
